Assay results taken from PMC11003480, “Promising inhibition of diabetes-related enzymes and antioxidant properties of Ptilostemon casabonae leaves extract” (Journal of Enzyme Inhibition and Medicinal Chemistry, 2023).

What was measured:
[1] = target: Saccharomyces cerevisiae α-glucosidase; assay: α-Glucosidase inhibition assay (pNPG substrate); format: biochemical; details: for α-Glucosidase Mode of inhibition: Lineweaver-Burk plot; for equilibrium constant for binding with the enzyme-substrate complex (KIS): from intercepts (1/Vmax) versus inhibitor concentration; for equilibrium constant for binding with the free enzyme (KI): from slope (Km/Vmax) versus inhibitor concentration
Method: The concentrations of extract required to give 50% inhibition of enzyme activity (IC50) were determined. […] The Lineweaver-Burk double reciprocal plot was used to determine the mode of α-glucosidase inhibition by performing assays at different concentrations of substrate and extract or compound. Grafit 7 (Erithacus, East Grinstead, UK) was used as data analysis software. α-Glucosidase inhibitory activity was analysed following the method described by Delogu et al.[15]. […] It was first incubated for 15 min at 37 °C. Then, 20 µL of p-nitrophenyl α-D-glucopyranoside solution (pNPG, 5 mM) was added. After further 15 min of incubation at 37 °C, the reaction was stopped by adding 50 μL of 0.2 M sodium carbonate solution. α-Glucosidase activity was determined with a 96-well microplate reader by measuring the absorbance at 405 nm. The mode of inhibition was determined, and the equilibrium constant for binding with the enzyme–substrate complex (KIS) was obtained from the vertical intercepts plotted versus inhibitor concentration.

[2] = ABTS radical scavenging activity; details: 50% reduction of absorbance at 734 nm after 1 min
Method: Briefly, the reaction between the reduced ABTS (7 mM) with potassium persulfate (2.45 mM) in an aqueous solution at room temperature for 24 h, was performed to produce free radical ABTS^.+. Then, different concentrations of extract (10 μL) were added to 1 ml of ABTS^.+, and the absorbance at 734 nm was recorded after 1 min. The activity was expressed as the concentration of sample necessary to give a 50% reduction in the original absorbance (EC50).

[3] = tested on: Saccharomyces cerevisiae α-glucosidase; design: method as in PMID 25805337; details: cited from earlier work
[4] = Ferric reducing antioxidant power assay (FRAP); details: ferrous equivalents; 4 min, absorbance 593 nm
Method: Ferric reducing antioxidant power assay (FRAP) was conducted as previously described, with slight modifications. An amount of 10 µL of the extract was mixed with 2 ml of the TPTZ–ferric solution and than incubated for 4 min at room temperature in the dark. The absorbance was read at 593 nm and the result was expressed as ferrous equivalents (FE; mg Fe^2+ equivalents/mL solution). Ascorbic acid was used as reference compound.

| Compound | α-Glucosidase IC50 [1] [µg/mL] | α-Glucosidase Mode of inhibition [1] | equilibrium constant for binding with the enzyme-substrate complex (KIS) [1] [µg/mL] | also measured |
| --- | --- | --- | --- | --- |
| O=C(/C=C/c1ccc(O)c(O)c1)O[C@@H]1C[C@](OC(=O)/C=C/c2ccc(O)c(O)c2)(C(=O)O)C[C@@H](O)[C@H]1O [1,5-Dicaffeoylquinic acid (9), 1,5-Dicaffeoylquinic acid] | 36.64 ± 0.07 | Uncompetitive | 69.4 | – |
| C[C@@H]1O[C@@H](OC[C@H]2O[C@@H](Oc3c(-c4ccc(O)c(O)c4)oc4cc(O)cc(O)c4c3=O)[C@H](O)[C@@H](O)[C@@H]2O)[C@H](O)[C@H](O)[C@H]1O [Rutin (4), Quercetin 3-O-rutinoside (Rutin)] | 20.54 ± 4.45 | Mixed | 80.2 | α-Glucosidase Mode of inhibition ([1]; listed as rutin): mixed-type inhibition; equilibrium constant for binding with the free enzyme (KI) [1]: 9.3 µg/mL |
| O=C(/C=C/c1ccc(O)c(O)c1)O[C@@H]1C[C@](O)(C(=O)O)C[C@@H](O)[C@H]1O [Chlorogenic acid (1), 5-O-Caffeoylquinic acid (Chlorogenic acid)] | >100 | – | – | α-glucosidase inhibitory activity (in words) [1]: no inhibitory activity |
| Cc1c(C)c2c(c(C)c1O)CCC(C)(C(=O)O)O2 (stereo not shown) [Trolox, 6-hydroxy-2,5,7,8-tetramethylchromane-2-carboxylic acid] | – | – | – | ABTS EC50 [2]: 3.4 ± 0.3 µg/mL |
| O=C(/C=C/c1ccc(O)c(O)c1)O[C@H]1[C@H](O)C[C@](O)(C(=O)O)C[C@H]1OC(=O)/C=C/c1ccc(O)c(O)c1 [4,5-dicaffeoylquinic acid] | – | – | – | α-glucosidase inhibition (in words) [3]: able to inhibit this enzyme |
| O=C(/C=C/c1ccc(O)c(O)c1)O[C@@H]1CC(O)(C(=O)O)C[C@@H](OC(=O)/C=C/c2ccc(O)c(O)c2)C1O (stereo partly shown) [3,5-dicaffeoylquinic acid, 3,5-Dicaffeoylquinic acid] | – | – | – | α-glucosidase inhibition (in words) [3]: able to inhibit this enzyme |
| O=c1cc(-c2ccc(O)cc2)oc2cc(O)cc(O)c12 [Apigenin (23), Apigenin] | 3.88 ± 1.48 | Mixed | 19.6 | α-Glucosidase Mode of inhibition ([1]; listed as apigenin): mixed-type inhibition; equilibrium constant for binding with the free enzyme (KI) [1]: 6.5 µg/mL |
| O=C1O[C@H]([C@@H](O)CO)C(O)=C1O [Ascorbic acid] | – | – | – | FRAP [4]: 1.81 ± 0.13 mg FE/mL |
